{
  "source": "patent US8629300B2",
  "about": "“Arylamine-substituted divinyl fluorenes and their use for electrophotographic applications, and for OLEDs (organic light emitting devices)” (Sensient Imaging Technologies GmbH, priority 2006, dated 2014)",
  "experiment": "Solubility analysis in methylen chloride or THF",
  "assay_type": "physicochemical",
  "procedure": "Compound 12 complies with the solubility requirements set by the industry of 1 g substance/6 ml methylen chloride or THF. This compound was scaled up to 35 g. The compound was brought to an HPLC purity of >99.5% by using conventional purification methods, like e.g. recrystallization or column chromatography.",
  "data": [
    {"smiles": "Cc1ccc(N(c2ccc(C)cc2)c2ccc(/C=C/c3ccc4c(c3)C(C)(C)c3cc(/C=C/c5ccc(N(c6ccc(C)cc6)c6ccc(C)cc6)cc5)ccc3-4)cc2)cc1", "note": "[Compound 12, 2,7-Bis-(4-di-p-tolylaminophenylethenyl)-9,9-dimethyl-9H-fluorene]", "values": [
      {"measurement": "solubility (complies with the solubility requirements set by the industry)", "value": "≥ 1", "unit": "g substance/6 ml"}
    ]}
  ]
}
